Columns and labels:
Format in all cases: cell-based, rat
[1] = test system: bone marrow stromal cells; experiment: Centrifugation cell adhesion assay on poly(OEGMA) brush titanium surfaces; settings: poly(OEGMA) brushes, 0.9 pmol/cm^2 ligand; for cell adhesion, no antibody: serum exposure
Description: Cell adhesion to functionalized and untreated titanium surfaces was measured using a centrifugation assay that applies controlled detachment forces. […] Control titanium slides were coated with 10% FBS (to model serum protein adsorption) or blocking buffer (5% non-fat dry milk in PBS to produce a non adhesive support). Stromal cells were loaded with the fluorescent dye calcein-AM (2 μg/ml, Molecular Probes), detached using trypsin+EDTA, and resuspended serum-free in PBS with 2 mM dextrose. Cells were seeded onto the substrates (10,000 cells/well) for 1 h at 37° C. […] After filling the wells with PBS/dextrose and sealing with transparent adhesive tape, substrates were inverted and spun at a fixed speed in a centrifuge (Beckman Allegra 6, GH 3.8 rotor) to apply a centrifugal force corresponding to 12 g. After centrifugation, media was exchanged and fluorescence intensity was read to measure remaining adherent cells. For each well, adherent cell fraction was calculated as the ratio of post-spin to pre-spin fluorescence readings.
In vitro evaluation of these engineered titanium surfaces was performed using primary rat bone marrow stromal cells since this heterogeneous population contains osteoprogenitors, and human bone marrow stromal cells are currently used in clinical applications. Cell adhesion was examined using a centrifugation assay that applies a controlled detachment force. […] As a complementary test of integrin specificity, integrin binding was quantified using a biochemical cross-linking/extraction/reversal technique.

[2] = test system: bone marrow stromal cells; experiment: Alkaline phosphatase biochemical activity assay
Description: Primary bone marrow stromal cells were harvested from the femora of young adult male Wistar rats in accordance with an IACUC-approved protocol. After excision, hindleg femora and tibiae were cleared of soft tissue and rinsed in growth medium (α-minimal essential medium supplemented with 10% fetal bovine serum, 1% penicillin-streptomycin, and 0.3 μg/ml amphotericin B). The ends of the long bones were then removed and the marrow space was flushed with culture medium (3-5 ml), using a syringe with an 18-gauge needle. Marrow isolates were pooled, centrifuged, resuspended in growth medium, and seeded for adhesion-dependent selection on tissue culture polystyrene dishes. Non-adherent hematopoietic cells were removed during subsequent medium exchanges, which occurred every other day. Cells were subcultured every two days according to standard techniques. For in vitro osteogenic assays, cells were seeded at 10,000 cells/cm^2 in growth medium. […]
ALP activity was quantified at 7 days in culture using a modification of the Sodek and Berkman method. […] After sonication and centrifugation, the protein concentration was quantified using a Pierce Micro BCA protein assay kit. […] After a 60 min incubation at 37° C., the fluorescence was read at an excitation of 360 nm and an emission of 465 nm on an HTS 7000 Plus BioAssay Reader (Perkin Elmer). […]

[3] = test system: bone marrow stromal cells; experiment: Centrifugation cell adhesion assay on titanium surfaces; settings: for stromal cell adhesion (adherent cell fraction): 1 h serum-free, centrifugation 12 g, no antibody, adsorbed on Ti at 20 μg/ml
Description: Primary bone marrow stromal cells were harvested from the femora of young adult male Wistar rats in accordance with an IACUC-approved protocol. After excision, hindleg femora and tibiae were cleared of soft tissue and rinsed in growth medium (α-minimal essential medium supplemented with 10% fetal bovine serum, 1% penicillin-streptomycin, and 0.3 μg/ml amphotericin B). The ends of the long bones were then removed and the marrow space was flushed with culture medium (3-5 ml), using a syringe with an 18-gauge needle. Marrow isolates were pooled, centrifuged, resuspended in growth medium, and seeded for adhesion-dependent selection on tissue culture polystyrene dishes. Non-adherent hematopoietic cells were removed during subsequent medium exchanges, which occurred every other day. Cells were subcultured every two days according to standard techniques. For in vitro osteogenic assays, cells were seeded at 10,000 cells/cm^2 in growth medium. After 24 h, cultures were maintained in osteogenic medium consisting of growth medium supplemented with 50 μg/ml L-ascorbic acid and 3 mM sodium β-glycerophosphate.
The peptide […](GPP)5GFOGER(GPP)5GPC (SEQ ID NO:1) [O=hydroxyproline] was prepared by the Emory University Microchemical Facility using solid phase t-Boc synthesis. Peptide was supplied in the purified form as a trifluoroacetic acid (TFA) salt and reconstituted at a stock concentration of 10 mg/ml in 0.1% TFA. For the in vitro assays, glass chamber slides (16-well Lab-Tek Chamber Slides, Nalge Nunc) or tissue culture-treated polystyrene dishes were coated with 300 Å of pure titanium using an electron beam evaporator at a chamber base pressure between 1-2×10^−6 torr with a deposition rate of 1.5 Å/second. The GFOGER peptide (SEQ ID NO:1) was diluted to 20 μg/ml in Dulbecco's phosphate-buffered saline (PBS) and incubated on the titanium surfaces for 1 h at 22° C.
Cell adhesion to functionalized and untreated titanium surfaces was measured using a centrifugation assay that applies controlled detachment forces. Titanium-coated glass chamber slide wells were reassembled using a silicone-based adhesive and coated with 20 μg/ml GFOGER peptide (SEQ ID NO:1) or 20 μg/ml GRGDSPC (SEQ ID NO:3) peptide (BACHEM). Control titanium slides were coated with 10% FBS (to model serum protein adsorption) or blocking buffer (5% non-fat dry milk in PBS to produce a non adhesive support). […] Initial fluorescence intensity was measured to quantify the number of adherent cells prior to application of centrifugal force. […] After centrifugation, media was exchanged and fluorescence intensity was read to measure remaining adherent cells. For each well, adherent cell fraction was calculated as the ratio of post-spin to pre-spin fluorescence readings. […]

Substance | cell adhesion with anti-αv antibody [1] | cell adhesion with blocking anti-α5 antibody [1] | cell adhesion, no antibody [1] | alkaline phosphatase activity ([2]; tethered brushes vs RGD-functionalized surfaces) | cell adhesion with blocking anti-α2 antibody ([3]; 20 μg/ml anti-rat α2 antibody) | cell adhesion with function-perturbing anti-αv antibody ([3]; 20 μg/ml anti-rat αv antibody) | stromal cell adhesion (adherent cell fraction) [3] | ALP activity ([2]; 7 days, adsorbed coating vs untreated titanium)
FNIII7-10: monobiotinylated recombinant fibronectin fragment spanning the 7-10th type III repeats of fibronectin; α5β1 integrin ligand | had no effect | completely eliminated cell adhesion | high levels of cell adhesion | higher alkaline phosphatase activity |  |  |  | 
GGYGGGPC(GPP)5GFOGER(GPP)5GPC [GFOGER peptide] |  |  |  |  | completely eliminated cell adhesion | had no effect on adhesion | greater stromal cell adhesion | elevated levels of activation
GRGDSPC [RGD peptide, linear RGD oligopeptide purchased from BACHEM; primarily supports αvβ3-mediated adhesion, reference compound] | eliminated adhesion |  | high levels of cell adhesion |  |  |  | equivalent to background levels | 

— patent US8445006B2, “Biomolecular coating for implants” (Georgia Tech Research Corporation, priority 2006, dated 2013)
